Measurements taken from patent US6806229B1, “Herbicidally active pyridine sulfonyl urea derivatives” (LG Life Sciences, priority 2003, dated 2004).

Test system: Oryza sativa
Experiment: Phytotoxicity to rice (direct-seeded and transplanted) in paddy condition, greenhouse pot test
Assay type: in vivo
Settings: 10 g/ha; direct-seeded rice, treated 5 days after sowing; visual rating after two weeks
Excerpt: (§1) Pots having a surface area of 150 cm^2 were filled with a small amount of fertilizer and sterilized paddy field soil in a muddy state with a depth of 5 cm. Five (5) seeds of pre-germinated rice were directly sown on the soil surface and three (3) rice seedlings (2˜3 leaves) prepared in advance were transplanted in a depth of 2 cm in each pot. In another pot, seeds of barnyardgrass were sown and incorporated into the surface layer of soil. After sowing and transplanting of rice plant and sowing of barnyardgrass, the pots were flooded with water 3 cm deep and kept in a greenhouse. The rice plant was treated with the chemicals 5 days after sowing or transplanting, and barnyardgrass was treated with the chemicals at the pre-emergence (5 days after from sowing) and post-emergence stage (at the three-leaf stage, usually after 15 days from sowing).
(§2) Suitable herbicidal compositions were prepared by mixing and dissolving 1 part by weight of the active compound with 5 parts by weight of acetone and 1 part by weight of alkylaryl polyglycolether as an emulsifier and then diluting with water to the predetermined concentration. Application was made by dropping the herbicide solutions onto the water surface of the pots.

Compared with `COc1cc(OC)nc(NC(=O)NS(=O)(=O)c2cccnc2[C@@H](OC(=O)CO)[C@H](C)F)n1` [Com. 1], `COc1cc(OC)nc(NC(=O)NS(=O)(=O)c2ccccc2[C@@H](OC(C)=O)[C@H](C)F)n1` [Standard Compound B, reference compound] is higher in “Phytotoxicity, Oryza sativa, Seed” value: 0% for the first, 30% for the second.

For `COCC(=O)O[C@H](c1nccc(Cl)c1S(=O)(=O)NC(=O)Nc1nc(OC)cc(OC)n1)[C@H](C)F` [Com. 5], the “Phytotoxicity, Oryza sativa, Seed” value was 0%.

Same assay, conditions: 10 g/ha; transplanted rice seedlings, treated 5 days after transplanting; visual rating after two weeks

Compared with `COc1cc(OC)nc(NC(=O)NS(=O)(=O)c2cccnc2[C@@H](OC(=O)CO)[C@H](C)F)n1` [Com. 1], `COc1cc(OC)nc(NC(=O)NS(=O)(=O)c2ccccc2[C@@H](OC(C)=O)[C@H](C)F)n1` [Standard Compound B, reference compound] is higher in “Phytotoxicity, Oryza sativa, Transplanted” value (from here on “Phytotoxicity … Transplanted”): 0% for the first, 20% for the second.

`COCC(=O)O[C@H](c1nccc(Cl)c1S(=O)(=O)NC(=O)Nc1nc(OC)cc(OC)n1)[C@H](C)F` [Com. 5] was tested, and the “Phytotoxicity … Transplanted” value was 0%.

Same assay, conditions: 20 g/ha; direct-seeded rice, treated 5 days after sowing; visual rating after two weeks

Compared with `COc1cc(OC)nc(NC(=O)NS(=O)(=O)c2cccnc2[C@@H](OC(=O)CO)[C@H](C)F)n1` [Com. 1], `COc1cc(OC)nc(NC(=O)NS(=O)(=O)c2ccccc2[C@@H](OC(C)=O)[C@H](C)F)n1` [Standard Compound B, reference compound] is higher in “Phytotoxicity, Oryza sativa, Seed” value: 10% for the first, 40% for the second.

For `COCC(=O)O[C@H](c1nccc(Cl)c1S(=O)(=O)NC(=O)Nc1nc(OC)cc(OC)n1)[C@H](C)F` [Com. 5], the “Phytotoxicity, Oryza sativa, Seed” value was 10%.

Same assay, conditions: 20 g/ha; transplanted rice seedlings, treated 5 days after transplanting; visual rating after two weeks

First: COc1cc(OC)nc(NC(=O)NS(=O)(=O)c2cccnc2[C@@H](OC(=O)CO)[C@H](C)F)n1 [Com. 1]
Second: COc1cc(OC)nc(NC(=O)NS(=O)(=O)c2ccccc2[C@@H](OC(C)=O)[C@H](C)F)n1 [Standard Compound B, reference compound]
The “Phytotoxicity … Transplanted” value of the first is lower: 10% for the first, 20% for the second.

In the case of `COCC(=O)O[C@H](c1nccc(Cl)c1S(=O)(=O)NC(=O)Nc1nc(OC)cc(OC)n1)[C@H](C)F` [Com. 5], the “Phytotoxicity … Transplanted” value is reported as 0%.

Same assay, conditions: 40 g/ha; direct-seeded rice, treated 5 days after sowing; visual rating after two weeks

Going from `COc1cc(OC)nc(NC(=O)NS(=O)(=O)c2cccnc2[C@@H](OC(=O)CO)[C@H](C)F)n1` [Com. 1] to `COc1cc(OC)nc(NC(=O)NS(=O)(=O)c2ccccc2[C@@H](OC(C)=O)[C@H](C)F)n1` [Standard Compound B, reference compound], the “Phytotoxicity, Oryza sativa, Seed” value rises from 30% to 50%.

For `COCC(=O)O[C@H](c1nccc(Cl)c1S(=O)(=O)NC(=O)Nc1nc(OC)cc(OC)n1)[C@H](C)F` [Com. 5], the “Phytotoxicity, Oryza sativa, Seed” value was 20%.

Same assay, conditions: 40 g/ha; transplanted rice seedlings, treated 5 days after transplanting; visual rating after two weeks

Going from `COc1cc(OC)nc(NC(=O)NS(=O)(=O)c2cccnc2[C@@H](OC(=O)CO)[C@H](C)F)n1` [Com. 1] to `COc1cc(OC)nc(NC(=O)NS(=O)(=O)c2ccccc2[C@@H](OC(C)=O)[C@H](C)F)n1` [Standard Compound B, reference compound], the “Phytotoxicity … Transplanted” value rises from 10% to 40%.

For `COCC(=O)O[C@H](c1nccc(Cl)c1S(=O)(=O)NC(=O)Nc1nc(OC)cc(OC)n1)[C@H](C)F` [Com. 5], the “Phytotoxicity … Transplanted” value was 0%.

Same assay, conditions: 80 g/ha; direct-seeded rice, treated 5 days after sowing; visual rating after two weeks, 0 = none, 100 = complete death

First: COc1cc(OC)nc(NC(=O)NS(=O)(=O)c2cccnc2[C@@H](OC(=O)CO)[C@H](C)F)n1 [Com. 1]
Second: COc1cc(OC)nc(NC(=O)NS(=O)(=O)c2ccccc2[C@@H](OC(C)=O)[C@H](C)F)n1 [Standard Compound B, reference compound]
The “Phytotoxicity, Oryza sativa, Seed” value of the first is lower: 30% for the first, 70% for the second.

For `COCC(=O)O[C@H](c1nccc(Cl)c1S(=O)(=O)NC(=O)Nc1nc(OC)cc(OC)n1)[C@H](C)F` [Com. 5], the “Phytotoxicity, Oryza sativa, Seed” value was 30%.

Same assay, conditions: 80 g/ha; transplanted rice seedlings, treated 5 days after transplanting; visual rating after two weeks

Compared with `COc1cc(OC)nc(NC(=O)NS(=O)(=O)c2cccnc2[C@@H](OC(=O)CO)[C@H](C)F)n1` [Com. 1], `COc1cc(OC)nc(NC(=O)NS(=O)(=O)c2ccccc2[C@@H](OC(C)=O)[C@H](C)F)n1` [Standard Compound B, reference compound] is higher in “Phytotoxicity … Transplanted” value: 20% for the first, 60% for the second.

For `COCC(=O)O[C@H](c1nccc(Cl)c1S(=O)(=O)NC(=O)Nc1nc(OC)cc(OC)n1)[C@H](C)F` [Com. 5], the “Phytotoxicity … Transplanted” value was 20%.

Test system: Echinochloa crus-galli
Experiment: Herbicidal activity to barnyardgrass in paddy condition, pre- and post-emergence, greenhouse pot test
Assay type: in vivo
Settings: Echinochloa crus-galli, 336 h; 5 g/ha; post-emergence, three-leaf stage; visual rating after two weeks; read-out: Herbicidal activity, Echinochloa crus-galli, Post-emergence (3-Leaf stage)
Excerpt: as §1, §2

Compared with `COc1cc(OC)nc(NC(=O)NS(=O)(=O)c2cccnc2[C@@H](OC(=O)CO)[C@H](C)F)n1` [Com. 1], `COc1cc(OC)nc(NC(=O)NS(=O)(=O)c2ccccc2[C@@H](OC(C)=O)[C@H](C)F)n1` [Standard Compound B, reference compound] is lower in pest or weed control at 5 g/ha: 60% for the first, 50% for the second.

Work on `COCC(=O)O[C@H](c1nccc(Cl)c1S(=O)(=O)NC(=O)Nc1nc(OC)cc(OC)n1)[C@H](C)F` [Com. 5] yielded a pest or weed control at 5 g/ha of 60%.

Same assay, conditions: Echinochloa crus-galli, 336 h; 5 g/ha; pre-emergence (5 days after sowing); visual rating after two weeks; read-out: Herbicidal activity, Echinochloa crus-galli, Pre-emergence

`COc1cc(OC)nc(NC(=O)NS(=O)(=O)c2cccnc2[C@@H](OC(=O)CO)[C@H](C)F)n1` [Com. 1] and `COc1cc(OC)nc(NC(=O)NS(=O)(=O)c2ccccc2[C@@H](OC(C)=O)[C@H](C)F)n1` [Standard Compound B, reference compound] are the same in pest or weed control at 5 g/ha: 50% for the first, 50% for the second.

`COCC(=O)O[C@H](c1nccc(Cl)c1S(=O)(=O)NC(=O)Nc1nc(OC)cc(OC)n1)[C@H](C)F` [Com. 5] was tested, and the pest or weed control at 5 g/ha was 50%.

Same assay, conditions: Echinochloa crus-galli, 336 h; 10 g/ha; post-emergence, three-leaf stage; visual rating after two weeks; read-out: Herbicidal activity, Echinochloa crus-galli, Post-emergence (3-Leaf stage)

First: COc1cc(OC)nc(NC(=O)NS(=O)(=O)c2cccnc2[C@@H](OC(=O)CO)[C@H](C)F)n1 [Com. 1]
Second: COc1cc(OC)nc(NC(=O)NS(=O)(=O)c2ccccc2[C@@H](OC(C)=O)[C@H](C)F)n1 [Standard Compound B, reference compound]
The pest or weed control at 10 g/ha of the first is lower: 80% for the first, 90% for the second.

`COCC(=O)O[C@H](c1nccc(Cl)c1S(=O)(=O)NC(=O)Nc1nc(OC)cc(OC)n1)[C@H](C)F` [Com. 5] showed a pest or weed control at 10 g/ha of 70%.

Same assay, conditions: Echinochloa crus-galli, 336 h; 10 g/ha; pre-emergence (5 days after sowing); visual rating after two weeks; read-out: Herbicidal activity, Echinochloa crus-galli, Pre-emergence

Going from `COc1cc(OC)nc(NC(=O)NS(=O)(=O)c2cccnc2[C@@H](OC(=O)CO)[C@H](C)F)n1` [Com. 1] to `COc1cc(OC)nc(NC(=O)NS(=O)(=O)c2ccccc2[C@@H](OC(C)=O)[C@H](C)F)n1` [Standard Compound B, reference compound], the pest or weed control at 10 g/ha rises from 80% to 100%.

Compound `COCC(=O)O[C@H](c1nccc(Cl)c1S(=O)(=O)NC(=O)Nc1nc(OC)cc(OC)n1)[C@H](C)F` [Com. 5] has a pest or weed control at 10 g/ha of 80%.

Same assay, conditions: Echinochloa crus-galli, 336 h; 20 g/ha; post-emergence, three-leaf stage; visual rating after two weeks; read-out: Herbicidal activity, Echinochloa crus-galli, Post-emergence (3-Leaf stage)

`COc1cc(OC)nc(NC(=O)NS(=O)(=O)c2cccnc2[C@@H](OC(=O)CO)[C@H](C)F)n1` [Com. 1] and `COc1cc(OC)nc(NC(=O)NS(=O)(=O)c2ccccc2[C@@H](OC(C)=O)[C@H](C)F)n1` [Standard Compound B, reference compound] are the same in pest or weed control at 20 g/ha: 90% for the first, 90% for the second.

For `COCC(=O)O[C@H](c1nccc(Cl)c1S(=O)(=O)NC(=O)Nc1nc(OC)cc(OC)n1)[C@H](C)F` [Com. 5], the pest or weed control at 20 g/ha was 90%.

Same assay, conditions: Echinochloa crus-galli, 336 h; 20 g/ha; pre-emergence (5 days after sowing); visual rating after two weeks; read-out: Herbicidal activity, Echinochloa crus-galli, Pre-emergence

First: COc1cc(OC)nc(NC(=O)NS(=O)(=O)c2cccnc2[C@@H](OC(=O)CO)[C@H](C)F)n1 [Com. 1]
Second: COc1cc(OC)nc(NC(=O)NS(=O)(=O)c2ccccc2[C@@H](OC(C)=O)[C@H](C)F)n1 [Standard Compound B, reference compound]
The pest or weed control at 20 g/ha of the first is lower: 90% for the first, 100% for the second.

`COCC(=O)O[C@H](c1nccc(Cl)c1S(=O)(=O)NC(=O)Nc1nc(OC)cc(OC)n1)[C@H](C)F` [Com. 5] gave a pest or weed control at 20 g/ha of 90%.

Same assay, conditions: Echinochloa crus-galli, 336 h; 30 g/ha; post-emergence, three-leaf stage; visual rating after two weeks; read-out: Herbicidal activity, Echinochloa crus-galli, Post-emergence (3-Leaf stage)

`COc1cc(OC)nc(NC(=O)NS(=O)(=O)c2cccnc2[C@@H](OC(=O)CO)[C@H](C)F)n1` [Com. 1] and `COc1cc(OC)nc(NC(=O)NS(=O)(=O)c2ccccc2[C@@H](OC(C)=O)[C@H](C)F)n1` [Standard Compound B, reference compound] are the same in pest or weed control at 30 g/ha: 100% for the first, 100% for the second.

`COCC(=O)O[C@H](c1nccc(Cl)c1S(=O)(=O)NC(=O)Nc1nc(OC)cc(OC)n1)[C@H](C)F` [Com. 5] gave a pest or weed control at 30 g/ha of 100%.

Same assay, conditions: Echinochloa crus-galli, 336 h; 30 g/ha; pre-emergence (5 days after sowing); visual rating after two weeks, 0 = no activity, 100 = complete death; read-out: Herbicidal activity, Echinochloa crus-galli, Pre-emergence

Going from `COc1cc(OC)nc(NC(=O)NS(=O)(=O)c2cccnc2[C@@H](OC(=O)CO)[C@H](C)F)n1` [Com. 1] to `COc1cc(OC)nc(NC(=O)NS(=O)(=O)c2ccccc2[C@@H](OC(C)=O)[C@H](C)F)n1` [Standard Compound B, reference compound], the pest or weed control at 30 g/ha rises from 90% to 100%.

`COCC(=O)O[C@H](c1nccc(Cl)c1S(=O)(=O)NC(=O)Nc1nc(OC)cc(OC)n1)[C@H](C)F` [Com. 5] was tested, and the pest or weed control at 30 g/ha was 100%.
